US9745289B2, “Aldosterone synthase inhibitors” (Boehringer Ingelheim International GmbH, priority 2014, dated 2017)

Each compound was assayed against cortisol synthase (CYP11B1) (Macaca fascicularis, UniProt A0A2K5ULY1) (assay: Inhibition of Cortisol Synthesis). Details: cynomolgus adrenal gland mitochondria; 150 units of CYP11B1, 11-deoxycortisol as substrate, cortisol measured as product.
Type: biochemical, cynomolgus monkey
Description: The aldosterone synthase and cortisol synthase inhibition assays employ cynomolgus adrenal gland mitochondria as the source of aldosterone synthase (CYP11B2) and cortisol synthase (CYP11B1). […] Activity of CYP11B2 and CYP11B1 in these preparations is defined as the amount of enzyme that generates 1 pmol of product in one hour under the conditions described.
Assays are performed in 96-well format in a final volume of 60 μL/well, containing 100 mM potassium phosphate, pH 7.4, 1% (v/v) DMSO, and additionally, 2 μM of corticosterone and 50 units of CYP11B2 activity. Reactions are started by the addition of NADPH to 1 mM and allowed to proceed for 90 minutes at 37° C. Reactions are terminated by the addition of 60 μL of MeCN containing an internal standard for mass spectrometry. One hundred microliters are then transferred to a glass filter plate and centrifuged at 570×g for 5 minutes and the filtrate is collected. Reaction product aldosterone is quantified by mass spectrometry. To determine the assay blank value (0% activity), NADPH is omitted from some reactions.
Dose dependent inhibition is quantified by the inclusion of compound at various concentrations. Maximum activity (100%) is defined by reactions containing NADPH, but without compound.
Assays are performed as for aldosterone synthase except for the use of 150 units of CYP11B1, 11-deoxycortisol as substrate and cortisol measured as product.

| Structure (SMILES) | IC50 [µM] |
| --- | --- |
| CC(=O)N1CC[C@H](Oc2cncc(C3COc4c(cccc4C(N)=O)O3)c2)C1 (single isomer, unassigned) [Cpd 17A] | > 30 |
| CC(=O)N1CC[C@H](Oc2cncc(C3COc4c(cccc4C(N)=O)O3)c2)C1 (single isomer, unassigned) [Cpd 17B] | 18 |
| CC(=O)N1CC(Oc2cncc(C3COc4c(cccc4C(N)=O)O3)c2)C1 (single isomer, unassigned) [Cpd 19A, 2-[5-(1-Acetyl-azetidin-3-yloxy)-pyridin-3-yl]-2,3-dihydro-benzo[1,4]dioxine-5-carboxylic acid amide] | > 30 |
| CC(=O)N1CC(Oc2cncc(C3COc4c(cccc4C(N)=O)O3)c2)C1 (single isomer, unassigned) [Cpd 19B, 2-[5-(1-Acetyl-azetidin-3-yloxy)-pyridin-3-yl]-2,3-dihydro-benzo[1,4]dioxine-5-carboxylic acid amide] | 24 |
| CN(Cc1cncc(C2COc3c(cccc3C(N)=O)O2)c1)C(=O)C1CC1 (single isomer, unassigned) [Cpd 24B, 2-{5-[(Cyclopropanecarbonyl-methyl-amino)-methyl]-pyridin-3-yl}-2,3-dihydro-benzo[1,4]dioxine-5-carboxylic acid amide] | 25 |
| CN(C)C(=O)COCc1cncc(C2COc3c(cccc3C(N)=O)O2)c1 (single isomer, unassigned) [Cpd 25A, 2-(5-Dimethylcarbamoylmethoxymethyl-pyridin-3-yl)-2,3-dihydro-benzo[1,4]dioxine-5-carboxylic acid amide] | > 100 |
| CNC(=O)c1cccc2c1OCC(c1cncc(C(F)(F)F)c1)O2 (single isomer, unassigned) [Cpd 28A, 2-(5-Trifluoromethyl-pyridin-3-yl)-2,3-dihydro-benzo[1,4]dioxine-5-carboxylic acid methylamide] | > 30 |
| CN(C)C(=O)Cc1cncc(C2COc3c(cccc3C(N)=O)O2)c1 (single isomer, unassigned) [Cpd 29A, 2-[5-[2-(Dimethylamino)-2-oxo-ethyl]-3-pyridyl]-2,3-dihydro-1,4-benzodioxine-5-carboxamide] | 22 |
| CN(C)C(=O)Cc1cncc(C2COc3c(cccc3C(N)=O)O2)c1 (single isomer, unassigned) [Cpd 29B, 2-[5-[2-(Dimethylamino)-2-oxo-ethyl]-3-pyridyl]-2,3-dihydro-1,4-benzodioxine-5-carboxamide] | > 30 |
| NC(=O)c1cccc2c1OCC(c1cncc(CC(=O)N3CCC(F)(F)CC3)c1)O2 (single isomer, unassigned) [Cpd 30A, 2-{5-[2-(4,4-Difluoro-piperidin-1-yl)-2-oxo-ethyl]-pyridin-3-yl}-2,3-dihydro-benzo[1,4]dioxine-5-carboxylic acid amide] | 22 |
| NC(=O)c1cccc2c1OCC(c1cncc(CC(=O)N3CCC(F)(F)CC3)c1)O2 (single isomer, unassigned) [Cpd 30B, 2-{5-[2-(4,4-Difluoro-piperidin-1-yl)-2-oxo-ethyl]-pyridin-3-yl}-2,3-dihydro-benzo[1,4]dioxine-5-carboxylic acid amide] | 24 |
| NC(=O)c1cccc2c1OCC(c1cncc(CN3CCOC3=O)c1)O2 (single isomer, unassigned) [Cpd 31A, 2-[5-(2-Oxo-oxazolidin-3-ylmethyl)-pyridin-3-yl]-2,3-dihydro-benzo[1,4]dioxine-5-carboxylic acid amide] | > 30 |
| NC(=O)c1cccc2c1OCC(c1cncc(CN3CCOC3=O)c1)O2 (single isomer, unassigned) [Cpd 31B, 2-[5-(2-Oxo-oxazolidin-3-ylmethyl)-pyridin-3-yl]-2,3-dihydro-benzo[1,4]dioxine-5-carboxylic acid amide] | > 30 |

The next compounds have a lower IC50 than those just listed; values first:

| IC50 [µM] | Structure (SMILES) |
| --- | --- |
| 5.2 | NC(=O)c1cccc2c1OCC(c1cncc(-c3ccc(S(N)(=O)=O)cc3)c1)O2 (single isomer, unassigned) [Cpd 16A, 2-[5-(4-Sulfamoyl-phenyl)-pyridin-3-yl]-2,3-dihydro-benzo[1,4]dioxine-5-carboxylic acid amide] |
| 0.054 | NC(=O)c1cccc2c1OCC(c1cncc(-c3ccc(S(N)(=O)=O)cc3)c1)O2 (single isomer, unassigned) [Cpd 16B, 2-[5-(4-Sulfamoyl-phenyl)-pyridin-3-yl]-2,3-dihydro-benzo[1,4]dioxine-5-carboxylic acid amide] |
| 16 | CC(=O)N1CC[C@@H](Oc2cncc(C3COc4c(cccc4C(N)=O)O3)c2)C1 (single isomer, unassigned) [Cpd 18A] |
| 1.1 | CC(=O)N1CC[C@@H](Oc2cncc(C3COc4c(cccc4C(N)=O)O3)c2)C1 (single isomer, unassigned) [Cpd 18B] |
| 8.2 | NC(=O)c1cccc2c1OCC(c1cncc(CO)c1)O2 (single isomer, unassigned) [Cpd 20A, 2-(5-Hydroxymethyl-pyridin-3-yl)-2,3-dihydro-benzo[1,4]dioxine-5-carboxylic acid amide] |
| 6.8 | NC(=O)c1cccc2c1OCC(c1cncc(CO)c1)O2 (single isomer, unassigned) [Cpd 20B, 2-(5-Hydroxymethyl-pyridin-3-yl)-2,3-dihydro-benzo[1,4]dioxine-5-carboxylic acid amide] |
| 2.6 | Cc1c(F)cncc1C1COc2c(cccc2C(N)=O)O1 (single isomer, unassigned) [Cpd 21A, 2-(5-Fluoro-4-methyl-pyridin-3-yl)-2,3-dihydro-benzo[1,4]dioxine-5-carboxylic acid amide] |
| 5.3 | Cc1c(F)cncc1C1COc2c(cccc2C(N)=O)O1 (single isomer, unassigned) [Cpd 21B, 2-(5-Fluoro-4-methyl-pyridin-3-yl)-2,3-dihydro-benzo[1,4]dioxine-5-carboxylic acid amide] |
| 2 | NC(=O)c1cccc2c1OCC(c1cncc(C(F)F)c1)O2 (single isomer, unassigned) [Cpd 22A, 2-(5-Difluoromethyl-pyridin-3-yl)-2,3-dihydro-benzo[1,4]dioxlne-5-carboxylic acid amide] |
| 2.3 | NC(=O)c1cccc2c1OCC(c1cncc(C(F)F)c1)O2 (single isomer, unassigned) [Cpd 22B, 2-(5-Difluoromethyl-pyridin-3-yl)-2,3-dihydro-benzo[1,4]dioxlne-5-carboxylic acid amide] |
| 1.4 | Cc1ccncc1C1COc2c(cccc2C(N)=O)O1 (single isomer, unassigned) [Cpd 23A, 2-(4-Methyl-pyridin-3-yl)-2,3-dihydro-benzo[1,4]dioxine-5-carboxylic acid amide] |
| 2 | Cc1ccncc1C1COc2c(cccc2C(N)=O)O1 (single isomer, unassigned) [Cpd 23B, 2-(4-Methyl-pyridin-3-yl)-2,3-dihydro-benzo[1,4]dioxine-5-carboxylic acid amide] |
| 7 | CN(Cc1cncc(C2COc3c(cccc3C(N)=O)O2)c1)C(=O)C1CC1 (single isomer, unassigned) [Cpd 24A, 2-{5-[(Cyclopropanecarbonyl-methyl-amino)-methyl]-pyridin-3-yl}-2,3-dihydro-benzo[1,4]dioxine-5-carboxylic acid amide] |
| 15 | CN(C)C(=O)COCc1cncc(C2COc3c(cccc3C(N)=O)O2)c1 (single isomer, unassigned) [Cpd 25B, 2-(5-Dimethylcarbamoylmethoxymethyl-pyridin-3-yl)-2,3-dihydro-benzo[1,4]dioxine-5-carboxylic acid amide] |
| 1.8 | NC(=O)c1cccc2c1OCC(c1cncc(C3(O)CCC3)c1)O2 (single isomer, unassigned) [Cpd 26A, 2-[5-(1-Hydroxy-cyclobutyl)-pyridin-3-yl]-2,3-dihydro-benzo[1,4]dioxine-5-carboxylic acid amide] |
| 0.67 | NC(=O)c1cccc2c1OCC(c1cncc(C3(O)CCC3)c1)O2 (single isomer, unassigned) [Cpd 26B, 2-[5-(1-Hydroxy-cyclobutyl)-pyridin-3-yl]-2,3-dihydro-benzo[1,4]dioxine-5-carboxylic acid amide] |
| 2.8 | Cc1c(C(C)O)cncc1C1COc2c(cccc2C(N)=O)O1 (single isomer, unassigned) [Cpd 27A, 2-[5-(1-Hydroxy-ethyl)-4-methyl-pyridin-3-yl]-2,3-dihydro-benzo[1,4]dioxine-5-carboxylic acid amide] |
| 5 | Cc1c(C(C)O)cncc1C1COc2c(cccc2C(N)=O)O1 (single isomer, unassigned) [Cpd 27B, 2-[5-(1-Hydroxy-ethyl)-4-methyl-pyridin-3-yl]-2,3-dihydro-benzo[1,4]dioxine-5-carboxylic acid amide] |
| 6.1 | CNC(=O)c1cccc2c1OCC(c1cncc(C(F)(F)F)c1)O2 (single isomer, unassigned) [Cpd 28B, 2-(5-Trifluoromethyl-pyridin-3-yl)-2,3-dihydro-benzo[1,4]dioxine-5-carboxylic acid methylamide] |
| 6 | NC(=O)c1cccc2c1OCC(c1cncc(C3(F)CCOCC3)c1)O2 (single isomer, unassigned) [Cpd 32A, 2-[5-(4-Fluoro-tetrahydro-pyran-4-yl)-pyridin-3-yl]-2,3-dihydro-benzo[1,4]dioxine-5-carboxylic acid amide] |
